Measurements published in PMC9095486, “Reversible RNA phosphorylation stabilizes tRNA for cellular thermotolerance” (Nature, 2022).

How the values were obtained:
TkArkI [1] = target: T1, TkArkI (Thermococcus kodakarensis, UniProt Q5JDQ4); assay: LC-MS of ligands extracted from purified protein; type: binding; details: co-purified from E. coli
T1 construct: gene TK2051; full length, codon-optimised synthetic gene in pE-SUMO-TEV, E. coli; His6-SUMO tag cleaved by Ulp1; residues 1-216 described in structure

TkArkI [2] = target: T1, TkArkI; assay: X-ray crystallography, […] Å; LC-MS of bound ligand; details: co-purified from E. coli; putative ATP-binding pocket

T1 sequence (Q5JDQ4 entry or part of it): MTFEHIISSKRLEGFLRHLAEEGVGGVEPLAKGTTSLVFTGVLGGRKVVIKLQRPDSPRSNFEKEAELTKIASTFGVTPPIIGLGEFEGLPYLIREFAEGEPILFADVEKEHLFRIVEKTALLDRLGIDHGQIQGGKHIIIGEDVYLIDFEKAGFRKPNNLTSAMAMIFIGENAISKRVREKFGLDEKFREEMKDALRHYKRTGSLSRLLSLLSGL

Compound: Nc1nc2c(ncn2[C@H]2C[C@H](O)[C@@H](CO)O2)c(=O)[nH]1 [deoxyguanosine]
- LC-MS of ligands extracted from purified protein (TkArkI [1]): We confirmed guanosine (and deoxyguanosine) as a ligand that tightly binds to TkArkI

Compound: Nc1nc2c(ncn2[C@@H]2O[C@H](CO)[C@@H](O)[C@H]2O)c(=O)[nH]1 [guanosine]
- X-ray crystallography, 1.8 Å; LC-MS of bound ligand (TkArkI [2]): we observed a clear electron density for guanosine in the cleft of the two lobes
